Experimental data as given in article PMC4891710, “Unexpected involvement of staple leads to redesign of selective bicyclic peptide inhibitor of Grb7” (Scientific Reports, 2016).
Entries after “also recorded” stand apart in the source; their conditions may differ. Read-outs that look alike come from different tables or passages of the source. Each block holds one molecule with its values, some of them ahead of it. Positions of bridges follow the written chain, without caps; N, C: chain ends. Non-standard residues stand in square brackets, D forms with d. Residues, ends and D or L forms follow the SMILES beside them. Ser(allyl) = C=CCOC[C@H](N)C(=O)O

Legend:
Grb14-SH2 domain = biological target: T1, Grb14-SH2 domain (Homo sapiens, UniProt Q14449); experiment: SPR binding of G7-B4 to GST-Grb14-SH2 domain
T1 construct: Grb14-SH2 (encoding residues 426–540); made in house; host or cells: E. coli BL21 (DE3) pLysS
T1 sequence (Q14449 426-540): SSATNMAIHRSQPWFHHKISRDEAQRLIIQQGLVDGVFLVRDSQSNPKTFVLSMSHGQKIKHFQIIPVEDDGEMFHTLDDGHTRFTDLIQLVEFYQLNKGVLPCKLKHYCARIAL
Text: (§1) Previous studies have established the preferential binding of the G7-18NATE peptide to Grb7-SH2 over closely related SH2 domains (Grb10- and Grb14-SH2 domains that share 67% and 65% identity respectively, to the Grb7-SH2 and Grb2-SH2 (~26% identity) domain that shares the pYXN peptide recognition motif)[26]. In order to determine whether the bicyclic peptide G7-B4 retains its specificity for the Grb7-SH2 domain we measured the binding of G7-B4 to Grb2-, Grb10- and Grb14-SH2 domains using SPR. […] Therefore the binding of G7-B4 to Grb2-, Grb10- and Grb14-SH2 is over 130 times weaker than binding to Grb7-SH2 domain, showing that G7-B4 is highly specific for the Grb7-SH2 domain.
(§2) The pGEX2T plasmids with inserts containing Grb7-SH2 (encoding residues 415–532), Grb2-SH2 (encoding residues 58–160), Grb10-SH2 (encoding residues 471–594) and Grb14-SH2 (encoding residues 426–540) were kindly provided by Dr. Roger Daly. Glutathion-S-Transferase (GST)-Grb2-SH2, GST-Grb7-SH2, Grb-10-SH2 and GST-Grb14-SH2 were all expressed and purified as previously described. […] The free Grb7-SH2 used in crystallography was expressed as a GST-fusion protein and was purified by GST affinity, followed by thrombin cleavage to liberate free Grb7-SH2, and then purified by cation exchange chromatography, and size exclusion chromatography as previously described. […]

Grb2-SH2 domain = biological target: T2, Grb2-SH2 domain (Homo sapiens, UniProt P62993); experiment: SPR binding of G7-B4 to GST-Grb2-SH2 domain
T2 construct: Grb2-SH2 (encoding residues 58–160); made in house; host or cells: E. coli BL21 (DE3) pLysS
T2 sequence (P62993 58-160): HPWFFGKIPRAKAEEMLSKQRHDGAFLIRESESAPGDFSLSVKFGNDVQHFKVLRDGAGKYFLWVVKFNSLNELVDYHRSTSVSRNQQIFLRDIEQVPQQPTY
Text: as §1, §2

Grb10-SH2 domain = biological target: T3, Grb10-SH2 domain (Homo sapiens, UniProt Q13322); experiment: SPR binding of G7-B4 to Grb10-SH2 domain
T3 construct: Grb10-SH2 (encoding residues 471–594); made in house; host or cells: E. coli BL21 (DE3) pLysS
T3 sequence (Q13322 471-594): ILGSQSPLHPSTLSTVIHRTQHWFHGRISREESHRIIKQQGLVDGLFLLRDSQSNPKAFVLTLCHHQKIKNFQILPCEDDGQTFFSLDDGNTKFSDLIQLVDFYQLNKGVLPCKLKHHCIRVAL
Text: as §1, §2

Grb7-SH2 domain [1] = biological target: T4, Grb7-SH2 domain (Homo sapiens, UniProt Q14451); experiment: SPR binding of G7 peptides to GST-Grb7-SH2 domain; settings: for Kd: KD (equilibrium dissociation constant), steady-state equilibrium, single-site model, 50 mM sodium phosphate, 150 mM NaCl, 1 mM DTT, pH 7.4, 25 °C; for Bmax (maximum binding signal): fit to single-site saturation model
T4 sequence (Q14451 415-532): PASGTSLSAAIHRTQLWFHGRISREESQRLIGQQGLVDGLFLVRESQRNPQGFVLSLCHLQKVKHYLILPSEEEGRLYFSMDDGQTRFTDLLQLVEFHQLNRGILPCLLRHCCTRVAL

Grb7-SH2 domain [2] = biological target: T4, Grb7-SH2 domain; design: Grb7-SH2 (encoding residues 415–532); made in house; host or cells: E. coli BL21 (DE3) pLysS; settings: previously determined by ITC; cited from earlier work
GST-Grb7-SH2 [3] = biological target: T5, GST-Grb7-SH2 (UniProt Q14451 415-532); experiment: SPR; BIAcore T100; GST-SH2 proteins captured on anti-GST antibody on a CM5 chip, GST on the control cells; peptides 0-100 uM injected 60 s at 30 uL/min; 50 mM sodium phosphate, 150 mM NaCl, 1 mM DTT, pH 7.4; 25 C; KD from steady-state curves, single-site model; settings: both partners purified
T5 construct: pGEX2T insert; GST fusion used in SPR, captured by an anti-GST antibody; also called Grb7-SH2 domain
T5 sequence (Q14451 415-532): as above

GST-Grb7-SH2 [4] = biological target: T5, GST-Grb7-SH2; experiment: as above; settings: both partners purified; remark: listed apart in the source
[5] = SPR, no curvature up to 100 μM, saturation well below 50%

Molecule: NC(=O)C[C@@H]1NC(=O)[C@H](CC(=O)O)NC(=O)[C@H](Cc2ccc(O)cc2)NC(=O)CNC(=O)[C@H](CCC(=O)O)NC(=O)[C@H](Cc2ccccc2)NC(=O)[C@@H]2COCC=CCOC[C@H](NC1=O)C(=O)N[C@@H](Cc1ccccc1)C(=O)N1CCC[C@H]1C(=O)N[C@H](C(N)=O)CSCC(=O)N2 [Peptide G7-B1] ({CH2CO}-[Ser(allyl)]FEGYDN[Ser(allyl)]FPC-NH2; staple 1-8; thioether N-11)
Kd (Grb7-SH2 domain [2]): 1.9 µM

Molecule: CH3-CO-NH2-(XFEGYDNX)-CONH2 where X = O-allylserine (Ac-[Ser(allyl)]FEGYDN[Ser(allyl)]-NH2; staple 1-8; SMILES CC(=O)N[C@H]1COCC=CCOC[C@@H](C(N)=O)NC(=O)[C@H](CC(N)=O)NC(=O)[C@H](CC(=O)O)NC(=O)[C@H](Cc2ccc(O)cc2)NC(=O)CNC(=O)[C@H](CCC(=O)O)NC(=O)[C@H](Cc2ccccc2)NC1=O) [Peptide G7-B1NT]
binding to Grb7-SH2 domain (in words) (Grb7-SH2 domain [1]; SPR, peptide up to 100 μM): very weak binding; also recorded: dramatically reduced affinity

B1: G7-B4NS (cyclo-(CH2CO-(XFEGYDNXC)-CONH2 where X = O-allylserine), without ring closing metathesis (peptide)
chain: {CH2CO}-[Ser(allyl)]FEGYDN[Ser(allyl)]C-NH2
modifications: thioether N-9
SMILES: C=CCOC[C@@H]1NC(=O)CSC[C@@H](C(N)=O)NC(=O)[C@H](COCC=C)NC(=O)[C@H](CC(N)=O)NC(=O)[C@H](CC(=O)O)NC(=O)[C@H](Cc2ccc(O)cc2)NC(=O)CNC(=O)[C@H](CCC(=O)O)NC(=O)[C@H](Cc2ccccc2)NC1=O
Kd (GST-Grb7-SH2 [3]): 4.93 µM

Molecule: {CH2CO}-[Ser(allyl)]FEGYDN[Ser(allyl)]C-NH2 (staple 1-8; thioether N-9) [G7-B4 (cyclo-(CH2CO-(XFEGYDNXC)-CONH2 where X = O-allylserine)]
koff (GST-Grb7-SH2 [4]): ~0.25 s⁻¹ | Kd (GST-Grb7-SH2 [3]): 0.83 µM

B2: G7-B1 (cyclo-(CH2CO-(XFEGYDNXFPC)-CONH2 where X = O-allylserine) (peptide)
chain: {CH2CO}-[Ser(allyl)]FEGYDN[Ser(allyl)]FPC-NH2
modifications: staple 1-8; thioether N-11
SMILES: NC(=O)C[C@@H]1NC(=O)[C@H](CC(=O)O)NC(=O)[C@H](Cc2ccc(O)cc2)NC(=O)CNC(=O)[C@H](CCC(=O)O)NC(=O)[C@H](Cc2ccccc2)NC(=O)[C@@H]2COCC=CCOC[C@H](NC1=O)C(=O)N[C@@H](Cc1ccccc1)C(=O)N1CCC[C@H]1C(=O)N[C@H](C(N)=O)CSCC(=O)N2
koff (GST-Grb7-SH2 [4]): ~0.21 s⁻¹ | Kd (GST-Grb7-SH2 [3]): 1.5 µM

Further lines, results first:

Kd (Grb14-SH2 domain; [5]): > 100 µM | times weaker binding than to Grb7-SH2 domain (Grb14-SH2 domain; selectivity Grb7-SH2 over Grb14-SH2): over 130 times | Kd (Grb2-SH2 domain; [5]): > 100 µM | times weaker binding than to Grb7-SH2 domain (Grb2-SH2 domain; selectivity Grb7-SH2 over Grb2-SH2): over 130 times | Kd (Grb10-SH2 domain; [5]): > 100 µM | times weaker binding than to Grb7-SH2 domain (Grb10-SH2 domain; selectivity Grb7-SH2 over Grb10-SH2): over 130 times
Molecule: NC(=O)C[C@@H]1NC(=O)[C@H](CC(=O)O)NC(=O)[C@H](Cc2ccc(O)cc2)NC(=O)CNC(=O)[C@H](CCC(=O)O)NC(=O)[C@H](Cc2ccccc2)NC(=O)[C@@H]2COCC=CCOC[C@H](NC1=O)C(=O)N[C@H](C(N)=O)CSCC(=O)N2 [Peptide G7-B4] ({CH2CO}-[Ser(allyl)]FEGYDN[Ser(allyl)]C-NH2; staple 1-8; thioether N-9)

Kd (Grb7-SH2 domain [1]; SPR): 4.9 ± 0.03 µM | Bmax (maximum binding signal) (Grb7-SH2 domain [1]; SPR): 53.47 ± 0.02 RU | times weaker affinity compared to G7-B1 (Grb7-SH2 domain [1]; ratio of SPR KD values): approximately 3 times
Molecule: NC(=O)C[C@@H]1NC(=O)[C@H](CC(=O)O)NC(=O)[C@H](Cc2ccc(O)cc2)NC(=O)CNC(=O)[C@H](CCC(=O)O)NC(=O)[C@H](Cc2ccccc2)NC(=O)[C@@H]2COCC=CCOC[C@H](NC1=O)C(=O)N1CCC[C@H]1C(=O)N[C@H](C(N)=O)CSCC(=O)N2 [Peptide G7-B3] ({CH2CO}-[Ser(allyl)]FEGYDN[Ser(allyl)]PC-NH2; staple 1-8; thioether N-10)

Kd (Grb7-SH2 domain [1]; SPR): 4.9 µM | Bmax (maximum binding signal) (Grb7-SH2 domain [1]; SPR): 34.78 ± 0.01 RU | fold loss in binding affinity compared to G7-B4 (Grb7-SH2 domain [1]; ratio of SPR KD values): 6 fold
Molecule: C=CCOC[C@@H]1NC(=O)CSC[C@@H](C(N)=O)NC(=O)[C@H](COCC=C)NC(=O)[C@H](CC(N)=O)NC(=O)[C@H](CC(=O)O)NC(=O)[C@H](Cc2ccc(O)cc2)NC(=O)CNC(=O)[C@H](CCC(=O)O)NC(=O)[C@H](Cc2ccccc2)NC1=O [Peptide G7-B4NS] ({CH2CO}-[Ser(allyl)]FEGYDN[Ser(allyl)]C-NH2; thioether N-9)
